Assay results reported in patent publication US20070167499A1, “Biaryl linked hydroxamates: preparation and pharmaceutical applications” (A*BIO Pte Ltd., priority 2003, published 2007).

Tests used:
[1] = system: Ramos Burkitt-lymphoma cells; assay: Apoptosis assay (Annexin V / PI flow cytometry); type: cell-based, human; details: 48 h after treatment with 10 μM
Text: In various therapies such as for proliferative disorders like cancer, the selective induction of apoptosis in proliferating cells such as tumor cells is one of the desirable approaches, and can be mediated by treatment with various anti-proliferative compounds [Blagosklonny MV, Oncogene, 23(16): 2967 (2004); Kaufmann and Eamshaw, Exp Cell Res. 256(1): 42-9 (2000)]. Programmed cell death or apoptosis is the cellular response to stress factors such as DNA damage introduced during conventional anti-cancer treatment. The concerted sequence of events during apoptosis, clearly differentiate this pathway from a non-coordinated form of cell death called necrosis. During the course of apoptosis, characteristic phenotypical cellular changes occur, which include the condensation of chromatin, the shrinkage of cells and finally the fragmentation of chromosomal DNA. One of the very early change caused by apoptotic events occurs in the phospholipids bilayer of the plasma membrane. The phospholipid phosphatidylserine is translocated from the inner to the outer side of the plasma-membrane and, as a result, is exposed to the extracellular space. One way of detecting early apoptotic cells is to determine the amount of phosphatidyl-serine at the extracellular side of the plasma-membrane which is accomplished by the standard flow cytometric method of Annexin V staining. The phospholipids recognizing protein Annexin V binds with high affinity to these inverted and exposed phosphatidyl-serines.
The ability of the compounds in this invention to induce apoptosis was tested in Ramos Burkitt-lymphoma cells. This cell line is one of the gold standard cell lines commonly used as a tissue culture model for B cell lymphoma. Representative compounds as indicated below were added to 80,000 cells per 500 μl growth medium (RPMI1640 medium supplemented with 2 mM L-Glutamine, 10% heat-inactivated FBS, 1 mM Na-Pyruvate and 10 mM HEPES) in 24 well format at various concentrations. Two days after the start of treatment, cells were collected and subjected to the Annexin V staining protocol following the instructions of the manufacturer (BD Biosciences). By using propidium iodide (PI) as a viability control, cells that stain positive for Annexin V, but negative for PI, are undergoing apoptosis.

HDAC8 enzyme (GST-HDAC8) = molecular target: T1, HDAC8 enzyme (GST-HDAC8) (Homo sapiens, UniProt Q9BY41); assay: In vitro HDAC assay for determination of IC50 values (BIOMOL fluorescent-based HDAC activity assay), HDAC8; type: biochemical; details: 500 nM HDAC8 enzyme, 200 μM Flur de lys p53 peptide substrate, room temperature 2 h; read-out: HDAC8 Enzyme Activity, IC50
T1 construct: Amplification of human HDAC1 and HDAC8 coding region from this cDNA library; made in house; host or cells: SF9 insect cells (baculovirus, pFASTBAC vector)
T1 sequence (Q9BY41 1-377): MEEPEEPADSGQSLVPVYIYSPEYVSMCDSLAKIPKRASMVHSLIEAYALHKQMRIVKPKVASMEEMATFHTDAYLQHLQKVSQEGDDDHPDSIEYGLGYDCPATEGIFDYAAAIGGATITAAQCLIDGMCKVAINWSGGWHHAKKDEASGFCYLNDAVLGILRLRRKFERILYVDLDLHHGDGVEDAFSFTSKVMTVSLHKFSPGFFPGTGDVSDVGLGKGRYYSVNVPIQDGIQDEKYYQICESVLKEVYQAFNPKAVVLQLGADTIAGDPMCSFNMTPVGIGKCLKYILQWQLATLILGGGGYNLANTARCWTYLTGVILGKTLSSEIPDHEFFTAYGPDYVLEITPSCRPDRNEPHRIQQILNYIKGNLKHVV
Protocol: (§1) Recombinant GST-HDAC1 and GST-HDAC-8 Protein expression and purification
Human cDNA library was prepared using cultured SW620 cells. Amplification of human HDAC1 and HDAC8 coding region from this cDNA library was cloned separately into the baculovirus expression pDEST20 vector and pFASTBAC vector respectively (GATEWAY Cloning Technology, Invitrogen Pte Ltd). […] Recombinant baculovirus was prepared using the Bac-To-Bac method following the manufacturer's instruction (Invitrogen Pte Ltd).
(§2) Expression of GST-HDAC1 or HTGST-HDAC8 was done by infecting SF9 cells (Invitrogen Pte Ltd) with pDEST20-HDAC1 or pFASTBAC-GST-HDAC8 baculovirus at MOI=1 for 48 h. Soluble cell lysate was incubated with pre-equilibrated Glutathione Sepharose 4B beads (Amersham) at 4° C. for 2 h. The beads were washed with PBS buffer for 3 times. The GST-HDAC1 protein or GST-HDAC8 protein was eluted by elution buffer containing 50 mM Tris, pH8.0, 150 mM NaCl, 1% Triton X-100 and 10 mM or 20 mM reduced Glutathione. The purified GST-HDAC1 protein or purified GST-HDAC8 protein was dialyzed with HDAC storage buffer containing 10 mM Tris, pH7.5, 100 mM NaCl and 3 mM MgCl2. 20% Glycerol was added to purified GST-HDAC1 protein or purified GST-HDAC8 before storage at −80° C.
(§3) In vitro HDAC assay for determination of IC50 values
The assay has been carried out in 96 well format and the BIOMOL fluorescent-based HDAC activity assay has been applied. […] Flur de lys Developer was added and the reaction was incubated for 10 min. Briefly, deacetylation of the substrate sensitizes it to the developer, which then generates a fluorophore The fluorophore is excited with 360 nm light and the emitted light (460 nm) is detected on a fluorometric plate reader (Tecan Ultra Microplate detection system, Tecan Group Ltd.).
(§4) The analytical software, Prism 3.0® (GraphPad Software Inc) has been used to generate IC50 from a series of data.

HDAC1 enzyme (GST-HDAC1) = molecular target: T2, HDAC1 enzyme (GST-HDAC1) (Homo sapiens, UniProt Q13547); assay: In vitro HDAC assay for determination of IC50 values (BIOMOL fluorescent-based HDAC activity assay), HDAC1; type: biochemical; details: 600 nM HDAC1 enzyme, 500 μM Flur de lys generic substrate, room temperature 2 h
T2 construct: Amplification of human HDAC1 and HDAC8 coding region from this cDNA library; made in house; host or cells: SF9 insect cells (baculovirus, pDEST20 vector)
T2 sequence (Q13547 whole entry): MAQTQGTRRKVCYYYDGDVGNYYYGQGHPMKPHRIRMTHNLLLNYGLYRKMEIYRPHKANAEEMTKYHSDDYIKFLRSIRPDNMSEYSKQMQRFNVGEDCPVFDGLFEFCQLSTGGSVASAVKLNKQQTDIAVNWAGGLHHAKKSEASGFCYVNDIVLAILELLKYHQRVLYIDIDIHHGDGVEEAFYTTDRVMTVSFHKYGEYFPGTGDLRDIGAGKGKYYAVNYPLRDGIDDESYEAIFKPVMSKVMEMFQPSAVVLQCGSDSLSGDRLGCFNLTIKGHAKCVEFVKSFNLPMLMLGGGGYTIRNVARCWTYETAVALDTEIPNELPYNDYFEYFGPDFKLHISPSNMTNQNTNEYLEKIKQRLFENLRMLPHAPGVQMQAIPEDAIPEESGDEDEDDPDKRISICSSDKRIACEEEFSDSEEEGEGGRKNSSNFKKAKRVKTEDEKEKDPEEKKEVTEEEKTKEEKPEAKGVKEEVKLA
Protocol: as §1
Human cDNA library was prepared using cultured SW620 cells. Amplification of human HDAC1 and HDAC8 coding region from this cDNA library was cloned separately into the baculovirus expression pDEST20 vector and pFASTBAC vector respectively (GATEWAY Cloning Technology, Invitrogen Pte Ltd). The pDEST20-HDAC1 and pFASTBAC-HTGST-HDAC8 constructs were confirmed by DNA sequencing. Recombinant baculovirus was prepared using the Bac-To-Bac method following the manufacturer's instruction (Invitrogen Pte Ltd). Baculovirus titer was determined by plaque assay to be about 10^8 PFU/ml.
as §2, §3
The assay has been carried out in 96 well format and the BIOMOL fluorescent-based HDAC activity assay has been applied. The reaction composed of assay buffer, containing 25 mM Tris pH 7.5, 137 mM NaCl, 2.7 mM KCl, 1 mM MgCl2, 1 mg/ml BSA, tested compounds, 500 nM HDAC8 enzyme or 600 nM HDAC1 enzyme, 200 μM Flur de lys p53 peptide substrate for HDAC8 enzyme or 500 μM Flur de lys generic substrate for HDAC1 enzyme and subsequently was incubated at room temperature for 2 h. Flur de lys Developer was added and the reaction was incubated for 10 min. Briefly, deacetylation of the substrate sensitizes it to the developer, which then generates a fluorophore The fluorophore is excited with 360 nm light and the emitted light (460 nm) is detected on a fluorometric plate reader (Tecan Ultra Microplate detection system, Tecan Group Ltd.).
as §4

[2] = system: acetylated H4 in Colo205 cells; assay: Histone H4 acetylation assay (western-blot); type: cell-based, human; design: key: “Active” means accumulation of acetylated histone was observed when compared with control (without compound); details: Colo205 cells, 0.1, 1, 5 and 10 μM, after 24 h
Protocol: (§5) Histone H3, H4 and H2A acetylation assay
(§6) A hallmark of histone deacetylase (HDAC) inhibition is the increase in the acetylation level of histones. Histone acetylation, including H3, H4 and H2A can be detected by immuno-blotting (western-blot). Colo205 cells, approximately 1.5×10^6 cells/10 cm dish, were seeded in the previously described medium, cultivated for 24 h and subsequently treated with HDAC inhibitory agents at 0.1, 1, 5 and 10 μM final concentration. After 24 h, cells were harvested and lysed according to the instruction from Sigma Mammalian Cell Lysis Kit. The protein concentration was quantified using BCA method (Sigma Pte Ltd). The protein lysate was separated using 4-12% bis-tris SDS-PAGE gel (Invitrogen Pte Ltd) and was transferred onto PVDF membrane (BioRad Pte Ltd). The membrane was probed separately using primary antibody specific for acetylated H3, acetylated H4 or acetylated H2A (Upstate Pte Ltd). The detection antibody, goat anti rabbit antibody conjugated with horse radish peroxidase (HRP) was used according to the manufacturing instruction (Pierce Pte Ltd). After removing the detection antibody from the membrane, an enhanced chemiluminescent substrate for detection of HRP (Pierce Pte Ltd) was added onto the membrane. After removing the substrate, the membrane was exposed to an X-ray film (Kodak) for 1 sec-20 mins. The X-ray film was developed using the X-ray film processor. The density of each band observed on the developed film could be analysed using UVP Bioimaging software (UVP, Inc, Upland, Calif.). The values were then normalized against the density of actin in the corresponding samples to obtain the expression of the protein.

[3] = system: acetylated H3 in Colo205 cells; assay: Histone H3 acetylation assay (western-blot); type: cell-based, human; design: key: “Active” means accumulation of acetylated histone was observed when compared with control (without compound); details: Colo205 cells, 0.1, 1, 5 and 10 μM, after 24 h
Protocol: as §5
as §6, with “After 24 h, cells were harvested and lysed according to the instruction from Sigma Mammalian Cell Lysis Kit.” left out

SMILES	IC50 (HDAC8 enzyme (GST-HDAC8)) [nM]	IC50 (HDAC1 enzyme (GST-HDAC1)) [nM]	% cells in late apoptosis (Ramos) [1] [%]	Histone 4 acetylation [2]	Histone 3 acetylation [3]
O=C(NO)c1ccc(-c2csc(NS(=O)(=O)c3ccccc3)n2)s1 [Example 15, 5-(2-Benzenesulfonylamino-thiazol-4-yl)-thiophene-2-carboxylic acid hydroxyamide]	290	1130			
O=C(Cc1ccc(-c2csc(NC(=O)c3ccn(CC4CCNCC4)c3-c3ccccc3)n2)s1)NO [Example 10]	140	> 100000			
O=C(Nc1cccc(-c2cc(C(=O)NO)n[nH]2)c1)c1ccccc1 [Example 18, 5-(3-Benzoylamino-ihenyl)-1H-pyrazole-3-carboxylic acid hydroxyamide]	350	> 100000			
O=C(Cc1ccccc1)Nc1nc(-c2cc(C(=O)NO)no2)cs1 [Example 17, 5-(2-Phenylacetylamino-thiazol-4-yl)-isoxazole-3-carboxylic acid hydroxyamide]	340	1400			
O=C(Cc1ccccc1)NCc1cccc(-c2ccc(C(=O)NO)cc2)c1 [3′-(Phenylacetylamino-methyl)-biphenyl-4-carboxylic acid hydroxyamide, reference compound]			89		

More lines, in order of falling IC50 (HDAC8 enzyme (GST-HDAC8)), values ahead:

IC50 (HDAC8 enzyme (GST-HDAC8)) [nM]	IC50 (HDAC1 enzyme (GST-HDAC1)) [nM]	SMILES	% cells in late apoptosis (Ramos) [1] [%]	Histone 4 acetylation [2]	Histone 3 acetylation [3]
110	1420	O=C(NO)c1ccc(-c2ccc(NCc3ccccc3)cc2)s1 [Example 44]	82		
89	2760	O=C(Cc1ccc(-c2csc(NC(=O)c3ccc(N4CCNCC4)cc3)n2)s1)NO [Example 8]	74		
50	220	O=C(NO)c1ccc(-c2cccc(CNCCc3ccccn3)c2)s1 [Example 30]		Active	Active
40	2780	Cc1nc(C2CCCNC2)sc1C(=O)Nc1nc(-c2ccc(CC(=O)NO)s2)cs1 (stereo not drawn) [Example 6]			
38	700	O=C(COc1ccccc1)Nc1nc(-c2ccc(C(=O)NO)s2)cs1 [Example 16, 5-[2-(2-Phenoxy-acetamino)-thiazol-4-yl]-thiophene-2-carboxylic acid hydroxyamide]	90		
26	87	O=C(NO)c1ccc(-c2cccc(CNCCc3ccccc3)c2)s1 [Example 29]			
14	15	O=C(NO)c1ccc(-c2ccc(CNCCc3c[nH]c4ccccc34)cc2)s1 [Example 28]			
8	17	O=C(NO)c1ccc(-c2cccc(CNCCc3c[nH]c4ccccc34)c2)s1 [Example 31]			
